Measured values as given in ChEMBL document CHEMBL4765381, “Neuropeptide FF and Its Receptors: Therapeutic Applications and Ligand Development” (J Med Chem, 2020).
One block for each compound: values may come before it. Numbered stars: 1 amine (or outer) side, 2 acyl side, 3 side chain; on linkers, the order of the positions; unused ones are H or OH. Square brackets hold non-standard residues; d marks the D form. Peptide text beside a SMILES is read from it. Nva(5-(4-Bn-piperidin-1-yl)) = N[C@@H](CCCN1CCC(Cc2ccccc2)CC1)C(=O)O; X1 = O=C1[C@@H](N[*:1])Cc2ccccc2CN1CCC(=O)[*:2]; Dmt = Cc1cc(O)cc(C)c1C[C@H](N)C(=O)O; NMeF = CN[C@@H](Cc1ccccc1)C(=O)O

Assays:
[1] = molecular target: T1, Neuropeptide FF receptor 2 (Homo sapiens, UniProt Q9Y5X5); test: Antagonist activity at human NPFFR2 expressed in CHO-K1 cells assessed as apparent dissociation constant Ke by Eu-cAMP tracer based TR-FRET assay; format: functional, cell-based; settings: filed as antagonist
[2] = molecular target: T2, Neuropeptide FF receptor 1 (Homo sapiens, UniProt Q9GZQ6); test: Antagonist activity at human NPFFR1 expressed in CHO-K1 cells assessed as apparent dissociation constant Ke by Eu-cAMP tracer based TR-FRET assay; format: functional, cell-based; settings: filed as antagonist
[3] = molecular target: T2, Neuropeptide FF receptor 1; test: Antagonist activity at human NPFFR1 expressed in CHO-RD-HGA16 cells assessed as reduction in NPFF-induced calcium influx by measuring apparent dissociation constant Ke preincubated for 15 mins followed by NPFF addition by calcium-5 dye based fluorescence method; format: functional, cell-based; settings: CHO/Galpha16, filed as antagonist
[4] = molecular target: T1, Neuropeptide FF receptor 2; test: Displacement of [125I]NPFF from human NPFFR2 expressed in CHO cell membranes incubated for 120 mins by scintillation/luminescence counting method; set-up: species or system Membrane
[5] = molecular target: T1, Neuropeptide FF receptor 2; test: Antagonist activity at human NPFFR2 expressed in CHO-RD-HGA16 cells assessed as reduction in NPFF-induced calcium influx by measuring apparent dissociation constant Ke preincubated for 15 mins followed by NPFF addition by calcium-5 dye based fluorescence method; format: functional, cell-based; settings: CHO/Galpha16, filed as antagonist
[6] = molecular target: T2, Neuropeptide FF receptor 1; test: Displacement of [125I]NPFF from human NPFFR1 expressed in CHO cell membranes incubated for 120 mins by scintillation/luminescence counting method; set-up: species or system Membrane
[7] = molecular target: Neuropeptide FF receptor 2 (Rattus norvegicus) (UniProt Q9EQD2); test: Agonist activity at rat NPFFR2 by cell-based assay relative to control; settings: filed as agonist
[8] = molecular target: T1, Neuropeptide FF receptor 2; test: Displacement of [125I]EYF from human NPFFR2 expressed in CHO cells by gamma-counter method; format: cell-based
[9] = molecular target: T2, Neuropeptide FF receptor 1; test: Agonist activity at NPFFR1 (unknown origin) expressed in mouse NIH3T3 cells by receptor selection and amplification technology assay relative to control; format: cell-based
[10] = molecular target: KiSS-1 receptor (Homo sapiens, UniProt Q969F8); test: Displacement of [125I]-Kp-10 from human KISS1R expressed in CHO cell membrane by TopCount scintillation counter method; format: cell membranes
[11] = molecular target: T3, Prolactin-releasing peptide receptor (Homo sapiens, UniProt P49683); test: Displacement of [3H]-PrRP-20 from human PrRP receptor expressed in CHO cell membrane by TopCount scintillation counter method; format: cell membranes
T3 sequence (P49683 whole entry): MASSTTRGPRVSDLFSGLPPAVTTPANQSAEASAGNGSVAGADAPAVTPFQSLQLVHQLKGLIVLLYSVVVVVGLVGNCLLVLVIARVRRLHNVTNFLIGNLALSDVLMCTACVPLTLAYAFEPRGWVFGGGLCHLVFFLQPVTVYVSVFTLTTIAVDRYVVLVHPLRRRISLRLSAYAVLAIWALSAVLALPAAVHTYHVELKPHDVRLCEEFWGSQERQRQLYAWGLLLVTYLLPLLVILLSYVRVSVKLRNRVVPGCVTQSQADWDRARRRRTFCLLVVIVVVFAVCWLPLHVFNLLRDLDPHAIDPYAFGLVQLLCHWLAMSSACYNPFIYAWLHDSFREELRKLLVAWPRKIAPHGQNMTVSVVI

[12] = molecular target: T4, Pyroglutamylated RF-amide peptide receptor (Homo sapiens, UniProt Q96P65); test: Displacement of [125I]-43RFa from human QRFP receptor expressed in CHO cell membrane by TopCount scintillation counter method; format: cell membranes
T4 sequence (Q96P65 whole entry): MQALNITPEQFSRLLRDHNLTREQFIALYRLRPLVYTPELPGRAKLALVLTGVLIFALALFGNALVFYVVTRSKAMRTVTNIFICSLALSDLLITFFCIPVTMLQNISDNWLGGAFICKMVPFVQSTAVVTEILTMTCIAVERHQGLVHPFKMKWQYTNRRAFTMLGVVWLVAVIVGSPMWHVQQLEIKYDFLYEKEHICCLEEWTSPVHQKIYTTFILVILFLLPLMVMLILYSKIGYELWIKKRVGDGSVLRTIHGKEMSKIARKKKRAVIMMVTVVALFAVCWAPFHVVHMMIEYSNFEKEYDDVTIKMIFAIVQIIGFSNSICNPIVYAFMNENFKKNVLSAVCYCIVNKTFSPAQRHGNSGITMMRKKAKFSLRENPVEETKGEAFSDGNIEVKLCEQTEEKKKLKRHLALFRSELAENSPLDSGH

[13] = molecular target: T1, Neuropeptide FF receptor 2; test: Agonist activity at NPFFR2 (unknown origin) expressed in HEK293T cells harboring EP2 incubated for 15 mins by cAMP assay relative to control; format: functional, cell-based; settings: filed as agonist
[14] = molecular target: T2, Neuropeptide FF receptor 1; test: Agonist activity at NPFFR1 (unknown origin) expressed in HEK293T cells harboring EP2 incubated for 15 mins by cAMP assay; format: functional, cell-based
[15] = molecular target: T2, Neuropeptide FF receptor 1; test: Agonist activity at NPFFR1 (unknown origin) expressed in HEK293T cells harboring EP2 incubated for 15 mins by cAMP assay relative to control; format: functional, cell-based; settings: filed as agonist
[16] = molecular target: T1, Neuropeptide FF receptor 2; test: Agonist activity at NPFFR2 (unknown origin) expressed in mouse NIH3T3 cells by receptor selection and amplification technology assay relative to control; format: cell-based; settings: filed as agonist
[17] = molecular target: T2, Neuropeptide FF receptor 1; test: Agonist activity at NPFFR1 (unknown origin) expressed in mouse NIH3T3 cells by receptor selection and amplification technology assay; format: cell-based
[18] = molecular target: Delta-type opioid receptor (Homo sapiens) (UniProt P41143); test: Agonist activity at human delta-opioid receptor expressed in HEK293 cells assessed as inhibition of forskolin-induced cAMP accumulation preincubated for 15 mins followed by forskolin addition in presence of IBMX by Glo-sensor cAMP assay relative to control; format: functional, cell-based; settings: filed as agonist
[19] = molecular target: T1, Neuropeptide FF receptor 2; test: Agonist activity at human NPFFR2 expressed in CHO cells by [35S]-GTP S binding assay relative to control; format: cell-based
[20] = molecular target: Mu-type opioid receptor (Homo sapiens) (UniProt P35372); test: Agonist activity at human mu-opioid receptor expressed in HEK293 cells assessed as inhibition of forskolin-induced cAMP accumulation preincubated for 15 mins followed by forskolin addition in presence of IBMX by Glo-sensor cAMP assay relative to control; format: functional, cell-based; settings: filed as agonist
[21] = molecular target: Kappa-type opioid receptor (Homo sapiens, UniProt P41145); test: Agonist activity at human kappa opioid receptor expressed in HEK293 cells assessed as inhibition of forskolin-induced cAMP accumulation incubated for 15 mins followed by forskolin addition in presence of IBMX by Glo-sensor cAMP assay relative to control; format: functional, cell-based
[22] = molecular target: T2, Neuropeptide FF receptor 1; test: Agonist activity at human NPFFR1 expressed in CHO cells by [35S]-GTP S binding assay relative to control; format: cell-based
[23] = molecular target: T1, Neuropeptide FF receptor 2; test: Displacement of [125I]-1DMeNPFF from human NPFFR2 expressed in HEK293 cells incubated for 2 hrs by scintillation counting method; format: cell-based
[24] = Binding affinity to NPFFR in rat spinal cord; format: tissue-based
[25] = molecular target: T2, Neuropeptide FF receptor 1; test: Displacement of [125I]YVP from human NPFFR1 expressed in HEK293 cells by radioligand binding assay; format: cell-based
[26] = Displacement of [125I]-1DMe from NPFF receptor in Sprague-Dawley rat dorsal horn of spinal cord incubated for 150 mins by autoradiography; format: tissue-based
[27] = molecular target: T1, Neuropeptide FF receptor 2; test: Agonist activity at human NPFFR2 expressed in CHO cells assessed as inhibition of forskolin-induced intracellular cAMP production incubated for 5 hrs by firefly/renilla luciferase reporter assay; format: functional, cell-based
[28] = molecular target: T1, Neuropeptide FF receptor 2; test: Displacement of TAMRA-NPFF from human NPFFR2 expressed in CHO-K1 cells preincubated for 15 mins followed by GTPgammaS addition and measured after 15 to 120 mins by competitive binding assay; format: cell-based

T2 sequence (Q9GZQ6 whole entry): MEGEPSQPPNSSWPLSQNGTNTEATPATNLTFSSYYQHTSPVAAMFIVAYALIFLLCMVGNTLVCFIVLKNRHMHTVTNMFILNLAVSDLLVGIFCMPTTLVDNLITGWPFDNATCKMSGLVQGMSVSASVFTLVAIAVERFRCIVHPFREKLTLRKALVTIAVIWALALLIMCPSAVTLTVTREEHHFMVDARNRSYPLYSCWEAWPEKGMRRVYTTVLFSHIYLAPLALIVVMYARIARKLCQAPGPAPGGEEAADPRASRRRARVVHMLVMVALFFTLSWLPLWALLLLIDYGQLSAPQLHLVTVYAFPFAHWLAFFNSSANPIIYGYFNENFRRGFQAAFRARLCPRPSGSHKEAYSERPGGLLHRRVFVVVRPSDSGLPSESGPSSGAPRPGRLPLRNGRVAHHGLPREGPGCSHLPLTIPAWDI
T1 sequence (Q9Y5X5 whole entry): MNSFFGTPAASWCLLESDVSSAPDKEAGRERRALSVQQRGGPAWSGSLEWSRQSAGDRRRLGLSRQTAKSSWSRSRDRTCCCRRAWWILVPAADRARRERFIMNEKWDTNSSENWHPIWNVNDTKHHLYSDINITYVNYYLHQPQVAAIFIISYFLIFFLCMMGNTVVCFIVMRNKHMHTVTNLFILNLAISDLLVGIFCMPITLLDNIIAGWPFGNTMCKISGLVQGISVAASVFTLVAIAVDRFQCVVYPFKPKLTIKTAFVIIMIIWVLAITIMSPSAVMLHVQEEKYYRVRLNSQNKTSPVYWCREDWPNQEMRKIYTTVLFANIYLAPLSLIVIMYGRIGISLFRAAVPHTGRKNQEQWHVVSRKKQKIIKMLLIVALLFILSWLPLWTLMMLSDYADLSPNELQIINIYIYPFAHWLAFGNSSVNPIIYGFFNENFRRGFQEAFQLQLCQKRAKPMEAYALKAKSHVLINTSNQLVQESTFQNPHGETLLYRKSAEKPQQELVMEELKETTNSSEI
Kappa-type opioid receptor, sequence (P41145 whole entry): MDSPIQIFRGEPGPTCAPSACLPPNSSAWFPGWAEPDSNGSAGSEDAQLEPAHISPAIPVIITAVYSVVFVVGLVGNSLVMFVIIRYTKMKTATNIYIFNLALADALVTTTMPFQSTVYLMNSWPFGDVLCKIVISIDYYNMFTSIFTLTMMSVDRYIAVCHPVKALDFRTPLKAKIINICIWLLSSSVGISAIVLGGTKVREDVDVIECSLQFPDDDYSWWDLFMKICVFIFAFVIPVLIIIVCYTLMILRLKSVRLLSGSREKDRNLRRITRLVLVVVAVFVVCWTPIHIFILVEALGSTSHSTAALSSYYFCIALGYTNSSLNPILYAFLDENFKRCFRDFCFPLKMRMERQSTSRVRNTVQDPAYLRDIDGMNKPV
KiSS-1 receptor, sequence (Q969F8 whole entry): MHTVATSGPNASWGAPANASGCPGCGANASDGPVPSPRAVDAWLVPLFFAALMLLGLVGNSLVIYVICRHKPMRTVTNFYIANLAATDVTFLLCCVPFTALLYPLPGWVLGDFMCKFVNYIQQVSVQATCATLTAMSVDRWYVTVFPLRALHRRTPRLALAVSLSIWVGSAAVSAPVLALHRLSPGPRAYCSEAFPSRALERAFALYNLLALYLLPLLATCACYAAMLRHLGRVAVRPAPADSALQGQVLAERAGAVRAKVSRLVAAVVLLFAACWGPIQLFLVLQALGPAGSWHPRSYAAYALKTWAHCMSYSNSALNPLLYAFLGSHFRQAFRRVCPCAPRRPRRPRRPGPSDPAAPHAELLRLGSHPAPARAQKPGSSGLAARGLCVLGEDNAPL
Mu-type opioid receptor (Homo sapiens), sequence (P35372 whole entry): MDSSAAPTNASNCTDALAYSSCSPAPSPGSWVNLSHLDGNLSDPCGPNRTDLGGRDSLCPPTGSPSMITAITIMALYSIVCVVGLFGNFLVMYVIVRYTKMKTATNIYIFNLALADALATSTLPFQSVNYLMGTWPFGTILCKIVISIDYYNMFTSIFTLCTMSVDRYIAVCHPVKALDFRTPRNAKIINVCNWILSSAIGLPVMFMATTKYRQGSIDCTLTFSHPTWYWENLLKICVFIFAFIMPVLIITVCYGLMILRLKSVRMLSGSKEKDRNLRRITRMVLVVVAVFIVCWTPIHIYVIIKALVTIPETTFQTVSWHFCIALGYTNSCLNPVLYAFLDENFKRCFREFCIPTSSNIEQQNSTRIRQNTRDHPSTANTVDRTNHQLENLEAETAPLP
Delta-type opioid receptor (Homo sapiens), sequence (P41143 whole entry): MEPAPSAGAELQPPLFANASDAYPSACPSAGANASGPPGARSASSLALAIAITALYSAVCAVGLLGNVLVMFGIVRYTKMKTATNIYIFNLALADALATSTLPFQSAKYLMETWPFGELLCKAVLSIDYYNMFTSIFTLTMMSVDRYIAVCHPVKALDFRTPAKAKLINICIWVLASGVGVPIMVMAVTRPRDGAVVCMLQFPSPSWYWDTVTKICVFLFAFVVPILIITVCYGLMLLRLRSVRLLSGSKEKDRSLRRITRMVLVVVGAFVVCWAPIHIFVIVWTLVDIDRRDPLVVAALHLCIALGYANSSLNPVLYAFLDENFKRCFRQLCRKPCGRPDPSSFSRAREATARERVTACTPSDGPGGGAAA
Neuropeptide FF receptor 2 (Rattus norvegicus), sequence (Q9EQD2 whole entry): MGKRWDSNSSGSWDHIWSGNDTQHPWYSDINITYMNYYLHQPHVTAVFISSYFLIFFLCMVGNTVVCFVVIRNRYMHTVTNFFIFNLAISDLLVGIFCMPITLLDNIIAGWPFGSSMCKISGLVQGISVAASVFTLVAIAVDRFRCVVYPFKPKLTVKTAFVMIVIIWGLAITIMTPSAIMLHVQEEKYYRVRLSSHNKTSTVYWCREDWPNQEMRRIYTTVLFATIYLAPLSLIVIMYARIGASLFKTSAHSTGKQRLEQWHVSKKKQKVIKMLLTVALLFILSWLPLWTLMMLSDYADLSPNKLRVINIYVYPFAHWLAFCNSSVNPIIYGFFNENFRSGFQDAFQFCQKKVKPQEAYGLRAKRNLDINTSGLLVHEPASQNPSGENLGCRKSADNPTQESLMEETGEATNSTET

- Ke [1]: 1.17 µM
- Ke [2]: 0.49 µM
- Ke [3]: 0.25 µM
- Ki [4]: 1670 nM
- Ke [5]: 0.69 µM
- Ki [6]: 610 nM
SMILES: COc1ccc(CN[C@H]2C[C@@H](C(=O)OCCc3ccc([N+](=O)[O-])cc3)N(Cc3ccccc3Cl)C2)cc1

- Emax [7]: 61%
SMILES: Cc1cc(NC(=N)N)nc2ccc(Cl)cc12

- Ki [8]: 23 nM
SMILES: CC(C)C[C@H](NC(=O)[C@H](CC(N)=O)NC(=O)[C@@H]1CCCN1C(=O)[C@@H](N)C(C)C)C(=O)N1CCC[C@H]1C(=O)N[C@@H](CCC(N)=O)C(=O)N[C@@H](CCCNC(=N)N)C(=O)N[C@@H](Cc1ccccc1)C(N)=O

- Ke [1]: 2.15 µM
- Ke [2]: 0.36 µM
- Ke [3]: 0.85 µM
- Ki [4]: 1440 nM
- Ke [5]: 3.09 µM
- Ki [6]: 890 nM
SMILES: CCCCCOC(=O)[C@@H]1C[C@H](NCc2ccc(OC)cc2)CN1Cc1ccccc1Cl

- Efficacy [9]: 12%
SMILES: N=C(N)N/N=C/c1ccc(Cl)c(Cl)c1

SMILES: NC(N)=N/N=C/c1ccc(Cl)c(Cl)c1
- Ki [10]: > 5000 nM
- Ki [11]: > 5000 nM
- Ki [12]: > 5000 nM

- Efficacy [13]: 89%
- EC50 [14]: 3160 nM
- Efficacy [9]: 30.6%
- Efficacy [15]: 42%
- Efficacy [16]: 108%
- EC50 [17]: 3160 nM
SMILES: N=C(N)N/N=C/c1ccc(Cl)c(C(F)(F)F)c1

SMILES: Cc1cc(O)cc(C)c1C[C@H](N)C(=O)N[C@H](CCCNC(=N)N)C(=O)N[C@H]1Cc2ccccc2CN(CCC(=O)N[C@@H](CCCN2CCC(Cc3ccccc3)CC2)C(=O)N[C@@H](Cc2ccccc2)C(N)=O)C1=O (H-[Dmt][dR][X1][Nva(5-(4-Bn-piperidin-1-yl))]F-NH2)
- Emax [18]: 90%
- Emax [19]: 38%
- Emax [20]: 85%
- Emax [21]: 34%
- Emax [22]: 10%

- Ki [23]: 3.2 nM
- Ki [24]: 0.07 nM
- Ki [25]: 2 nM
SMILES: CC(C)C[C@H](NC(=O)[C@H](N)Cc1ccc(O)cc1)C(=O)N(C)[C@@H](Cc1ccccc1)C(=O)N[C@@H](CCC(N)=O)C(=O)N1CCC[C@H]1C(=O)N[C@@H](CCC(N)=O)C(=O)N[C@@H](CCCN=C(N)N)C(=O)N[C@@H](Cc1ccccc1)C(N)=O (H-[dY]L[NMeF]QPQRF-NH2)

- Ki [26]: 15.5 nM
SMILES: NC(=O)CC[C@H](NC(=O)[C@@H]1CCCN1)C(=O)N[C@@H](CCCN=C(N)N)C(=O)N[C@@H](Cc1ccccc1)C(N)=O

- EC50 [27]: 1470 nM
- Ki [28]: 1.42 nM
SMILES: COc1cc2c(c(OC)c1OC)-c1c(cc(C)c(C)c1OC)[C@@H](C(=O)Oc1ccccc1)[C@@](C)(O)[C@@H](C)C2
